{"source": "patent US12691124B2", "about": "“Methods of controlling and improving brain health” (ICAHN SCHOOL OF MEDICINE AT MOUNT SINAI, priority 2019, dated 2026)", "key": {"primary cortical neurons": {"tested_on": "primary cortical neurons", "test": "Polar metabolite mass spectrometry in primary cortical neurons", "format": "cell-based, mouse", "description": "Mass Spectrometry. Cell culture plates (2e6 cells per well n=7-8 per group) were washed with 75 mM Ammonium bicarbonate, pH 7.4, warmed to 37 degrees. Plates were quenched on liquid nitrogen for 10 seconds and then placed on dry ice. 1 ml of 70% Ethanol in MS-grade water was warmed to 75 degrees and added to each well. Plates were incubated in a 75 degree water bath for 3 minutes, shaking gently every minute. After 3 minutes, plates were placed on dry ice and once cooled, supernatants were lyophilized using the speed vacuum and stored at −80 degrees. Samples were shipped on dry ice to Cellzome who processed the samples for mass spectrometry and performed the initial analysis annotating metabolites. A semi-quantitative approach was used which determines the metabolite levels relative to a control rather than absolute concentrations. All detected ions were used for statistical analysis regardless of how many samples they were detected. This allows for the identification of low-abundant metabolites that may be present in only a subset of samples.\nIf IBET858 is indeed decreasing metabolism as indicated, comprehensive metabolic changes after BET inhibition should be observed. Therefore, an unbiased analysis of polar metabolites via mass spectrometry was employed (FIGS. 12A-12C). Accordingly, the levels of 100-150 unique metabolites are changed by chronic BET inhibition in primary cortical neurons."}, "BRD4": {"target": "T1, BRD4 (Mus musculus, UniProt Q9ESU6)", "T1 construct": "Primary cortical neurons express BRD2/3/4, with BRD2 and BRD4 being the most abundant; endogenous in cells; host or cells: primary cortical neuronal cultures (mouse)", "test": "ChIP sequencing of BRD4 chromatin occupancy in neurons", "format": "cell-based", "description": "Chromatin Immunoprecipitation with Sequencing. Primary cortical neuronal cultures were washed once with PBS then fixed for 10 minutes with a 1% formaldehyde solution in PBS with protease inhibitors (Sigma #P8340) at room temperature. Fixation was quenched adding glycine to a final concentration of 0.125M (5 minutes, room temperature). 10e6 fixed cells were resuspended in 1 ml of lysis buffer (50 mM Hepes KOH, pH7.5, 140 mM NaCl, 1 mM EDTA, 10% glycerol, 0.5% NP-40, 0.25% Triton X-100) and 10 ul of protease inhibitor cocktail (PIC). Samples were rotated for 10 minutes at 4 degrees then spun at 1350 g at 4 C for 10 minutes. Pellets were resuspended in 1 ml of lysis buffer 2 (10 mM Tris-HCl pH8.0, 200 mM NaCl, 1 mM EDTA, 0.5 mM EGTA) and 10 ul PIC.). 5e6 nuclei were sonicated in lysis buffer 3 (10 mM Tris-HCl pH8.0, 100 mM NaCl, 1 mM EDTA, 0.5 mM EGTA, 0.1% Na-Deoxicholate, 0.5% N-Lauroylsarcosine) at 4 degrees for 5 cycles of 30 seconds ON/30 seconds OFF using the Diagenode bioruptor. After, 30 ul of 10% Triton-X100 was added to each sample and then spun for 15 minutes at 20,000 g at 4 degrees. Sonication efficiency was checked by running the samples on a 2% agarose gel to confirm enrichment for fragments from 200-500 bps.\nStreptavidin M-280 dynabeads were blocked with 0.5% BSA solution and coupled to 7 ug of antibody (Brd4 #Ab84778, Brd2 Bethyl #A302-583A, Pol2 Ser5 #Ab5408) for at least 8 hours at 4 degrees, rotating. Antibody-coupled beads were then added to sonicated chromatin (20e6 cells for Brd2/Brd4, 10e6 for Pol2) and incubated overnight at 4 degrees. After washing the IPs eight times with wash buffer (50 mM Hepes-KOH pH7.6, 100 mM LiCl, 1 mM EDTA, 1% NP-40, 0.7% Na-Deoxycholate) and once with TE buffer (10 mM Tris-HCl, 1 mM EDTA, 50 mM NaCl), Chromatin was eluted from magnetic beads in 200 ul elution buffer ([…] Tris-HCl pH8.0, 10 mM EDTA, 1% SDS) for 45 minutes at 65 degrees. Samples were de-crosslinked overnight at 65 degrees and proteins and RNA were removed by incubating with RNAse and proteinase k. Samples were purified using the Qiagen PCR purification kit according to the manufacturers protocol.\nSamples were end-repaired using the End-IT DNA End-Repair Kit (#ER0720). After 45 minutes incubation, samples were purified using the Qiagen PCR Clean up kit as described above. Samples were adenylated using a reaction mix (200 uM dATP, 1× Klenow buffer NEB2, Klenow Fragment (3′ to 5′ exo-), NEB M0212L) and incubating at 37 degrees for 30 minutes. […] Raw sequencing reads were then aligned to the mouse mm9 genome using the default settings of Bowtie (v2.2.0)87. Only uniquely mapped reads were retained, and the alignments were subsequently filtered using the SAMtools package (v0.1.19)88 to remove duplicate reads. […]"}}}
{"smiles": "CC(=O)N1c2ccc(-c3ccc(CN4CCCCC4)cc3)cc2[C@H](Nc2ccccc2)CC1C", "note": "(stereo in doubt) [IBET858]", "values": [{"measurement": "enrichment of decreased metabolites, Arginine/Proline metabolism (OR)", "setting": "primary cortical neurons; 1 week IBET858", "result": 26.8}, {"measurement": "enrichment of decreased metabolites, Glutamate metabolism (OR)", "setting": "primary cortical neurons; 1 week IBET858", "result": 24.4}, {"measurement": "enrichment of decreased metabolites, Tyrosine metabolism (OR)", "setting": "primary cortical neurons; 1 week IBET858", "result": 30.33}, {"measurement": "enrichment of decreased metabolites, glycolysis (OR)", "setting": "primary cortical neurons; 1 week IBET858", "result": 48.8}, {"measurement": "enrichment of decreased metabolites, pentose phosphate pathway (OR)", "setting": "primary cortical neurons; 1 week IBET858", "result": 42}, {"measurement": "enrichment of increased metabolites, aspartate metabolism pathway (OR)", "setting": "primary cortical neurons; 1 week IBET858", "result": 23.5}, {"measurement": "amino acids significantly decreased", "setting": "primary cortical neurons; 1 week IBET858, 13/20", "result": 65, "unit": "%"}, {"measurement": "unique metabolites changed", "setting": "primary cortical neurons; chronic BET inhibition (1 week)", "result": "100-150 metabolites"}, {"measurement": "genes that lose BRD4 at the transcriptional start site", "setting": "BRD4; 6 h IBET858", "result": 2226, "unit": "genes"}, {"measurement": "genes with gain of BRD4 at the transcriptional start site", "setting": "BRD4; 6 h IBET858", "result": 295, "unit": "genes"}, {"measurement": "loci with reduced occupancy of BRD4", "setting": "BRD4; DIV7, 6 h IBET858", "result": 4756, "unit": "loci"}, {"measurement": "loci with increased occupancy of BRD4", "setting": "BRD4; day 7, 6 h IBET858", "result": 1827, "unit": "loci"}]}
